Results on 25 compounds are retold here after EP4741386A1 (Jiangsu Yahong Meditech Co., Ltd., priority 2023, dated 2025).

Test [1] concerns the target T1, Recombinant human His6-USP1/His6-UAF1 complex protein (Homo sapiens, UniProt O94782).
T1 construct: His6; purchased R&D E-568-050
The test is described as follows: In vitro inhibitory activity against USP1 (Ubiquitin Rhodamine 110 fluorescence detection, 384-well plate). The conditions noted are these: Ub-Rho substrate, 1 hour pre-incubation, read after 30 minutes. The class given is biochemical. In outline: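 Fluorescence assay measuring inhibition of recombinant human His6-USP1/His6-UAF1 complex with Ubiquitin-Rhodamine 110 substrate. Compounds held as 50 mM stocks in 100% DMSO and dispensed by acoustic transfer into modified Tris assay buffer.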

Test [2] deals with MDA-MB-436. The experiment in a line: CTG experiment for cell viability (CellTiter-Glo, 96-well plate, 7 days). Format: cell-based. Particulars: Homo sapiens, MDA-MB-436, 168 h, MDA-MB-436 cells, 7 days culture with compound. In a few lines: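 MDA-MB-436 cells in DMEM were plated in 96-well format, treated with compounds, and cultured 7 days at 37°C. After removing the medium, cells were given PBS plus CellTiter-Glo reagent, incubated 10 min at room temperature, and luminescence was read. Curves were fitted as for the enzyme assay.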

T1 sequence (O94782 whole entry): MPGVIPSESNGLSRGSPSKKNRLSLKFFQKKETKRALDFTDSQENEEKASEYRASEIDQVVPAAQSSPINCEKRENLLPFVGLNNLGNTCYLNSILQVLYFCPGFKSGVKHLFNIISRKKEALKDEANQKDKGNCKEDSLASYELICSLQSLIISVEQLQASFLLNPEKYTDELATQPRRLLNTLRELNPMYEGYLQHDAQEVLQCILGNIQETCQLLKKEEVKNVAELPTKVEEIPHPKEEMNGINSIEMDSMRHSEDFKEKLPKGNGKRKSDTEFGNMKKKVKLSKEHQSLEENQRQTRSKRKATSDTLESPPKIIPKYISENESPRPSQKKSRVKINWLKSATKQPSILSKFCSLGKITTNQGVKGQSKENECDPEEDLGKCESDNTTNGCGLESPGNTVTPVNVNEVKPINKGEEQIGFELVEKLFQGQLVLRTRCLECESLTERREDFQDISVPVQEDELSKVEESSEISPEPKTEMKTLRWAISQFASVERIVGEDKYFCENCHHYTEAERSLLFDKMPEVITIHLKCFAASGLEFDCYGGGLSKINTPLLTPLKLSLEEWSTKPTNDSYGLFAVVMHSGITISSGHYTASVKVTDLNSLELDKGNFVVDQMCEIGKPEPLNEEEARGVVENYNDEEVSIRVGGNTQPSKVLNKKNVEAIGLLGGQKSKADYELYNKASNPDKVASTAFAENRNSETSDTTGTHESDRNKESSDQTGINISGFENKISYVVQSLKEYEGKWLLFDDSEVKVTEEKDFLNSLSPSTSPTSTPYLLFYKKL
T1 sequence (Q8TAF3 whole entry partner): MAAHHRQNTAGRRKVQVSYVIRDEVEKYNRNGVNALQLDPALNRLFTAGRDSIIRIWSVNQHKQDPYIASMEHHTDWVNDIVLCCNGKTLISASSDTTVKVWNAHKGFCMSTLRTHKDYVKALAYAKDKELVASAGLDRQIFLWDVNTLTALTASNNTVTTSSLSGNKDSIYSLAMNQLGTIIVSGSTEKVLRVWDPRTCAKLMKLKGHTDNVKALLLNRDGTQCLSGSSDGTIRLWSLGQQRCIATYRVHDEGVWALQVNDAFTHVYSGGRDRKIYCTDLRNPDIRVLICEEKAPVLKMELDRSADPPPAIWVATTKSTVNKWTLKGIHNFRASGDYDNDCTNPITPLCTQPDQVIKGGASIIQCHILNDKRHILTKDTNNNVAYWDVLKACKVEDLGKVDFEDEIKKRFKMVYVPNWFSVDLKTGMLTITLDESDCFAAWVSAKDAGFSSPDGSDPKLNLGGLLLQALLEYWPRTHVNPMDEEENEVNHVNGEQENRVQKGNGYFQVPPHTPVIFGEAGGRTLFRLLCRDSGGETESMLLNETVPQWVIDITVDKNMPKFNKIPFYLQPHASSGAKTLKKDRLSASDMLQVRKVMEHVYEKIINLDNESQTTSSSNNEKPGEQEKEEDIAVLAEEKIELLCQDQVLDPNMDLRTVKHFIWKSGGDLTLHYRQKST

In general, IC50 refers to the concentration that gives 50% inhibition. With `COc1cnc(-c2c(Cl)cnn2C(C)C)nc1NCc1ccc(-c2nc(C(F)(F)F)cn2C)cc1` [Example 164, 2-(4-Chloro-1-isopropyl-1H-pyrazol-5-yl)-5-methoxy-N-(4-(1-methyl-4-(trifluoromethyl)-1H-imidazol-2-yl)benzyl)pyrimidin-4-amine], the IC50 in test [1] stood at 1.1 nM; in test [2], 0.8 nM.

For the compound `COc1cnc(-c2c(Cl)cnn2C(C)C)nc1NCc1ccc(-n2nc(C(F)(F)F)cc2C)cc1` [Example 165, 2-(4-Chloro-1-isopropyl-1H-pyrazol-5-yl)-5-methoxy-N-(4-(5-methyl-3-(trifluoromethyl)-1H-pyrazol-1-yl)benzyl)pyrimidin-4-amine], the IC50 turned out to be 1.4 nM in test [1] and 7.1 nM in test [2].

On to `CC(C)n1ncc(Cl)c1-c1nc(NCc2ccc(-c3ccccn3)cc2)c2occc2n1` [Example 166, 2-(4-Chloro-1-isopropyl-1H-pyrazol-5-yl)-N-(4-(pyridin-2-yl)benzyl)furo[3,2-d]pyrimidin-4-amine], for which the IC50 in test [1] turned out to be 2.1 nM; in test [2], 41.4 nM.

Regarding `CC(C)n1ncc(Cl)c1-c1nc(NCc2ccc(-c3nc(C(F)(F)F)cn3C)cc2)c2occc2n1` [Example 167, 2-(4-Chloro-1-isopropyl-1H-pyrazol-5-yl)-N-(4-(1-methyl-4-(trifluoromethyl)-1H-imidazol-2-yl)benzyl)furo[3,2-d]pyrimidin-4-amine], the IC50 in test [1] came out at 0.45 nM; in test [2], 2.9 nM.

As for `Cc1cc(C(F)(F)F)nn1-c1ccc(CNc2nc(-c3c(Cl)cnn3C(C)C)nc3ccoc23)cc1` [Example 168, 2-(4-Chloro-1-isopropyl-1H-pyrazol-5-yl)-N-(4-(5-methyl-3-(trifluoromethyl)-1H-pyrazol-1-yl)benzyl)furo[3,2-d]pyrimidin-4-amine], the IC50 worked out at 1.2 nM in test [1] and 5.1 nM in test [2].

For `COc1cnc(-c2ccccc2C2CC2)nc1NCc1ccc(-c2nc(C(F)(F)F)cn2C)cc1` [Example 169, 2-(2-Cyclopropylphenyl)-5-methoxy-N-(4-(1-methyl-4-(trifluoromethyl)-1H-imidazol-2-yl)benzyl)pyrimidin-4-amine], the values for the IC50 in test [1] and in test [2] were 0.8 nM and 0.4 nM, respectively.

For the compound `COc1cnc(-c2ccccc2C2CC2)nc1NCc1ccc(-n2nc(C(F)(F)F)cc2C)cc1` [Example 170, 2-(2-Cyclopropylphenyl)-5-methoxy-N-(4-(5-methyl-3-(trifluoromethyl)-1H-pyrazol-1-yl)benzyl)pyrimidin-4-amine], the IC50 in test [1] was found to be 2.9 nM; in test [2], 14.5 nM.

On to `COc1cc(-c2nc(C(F)(F)F)cn2C)ccc1CNc1nc(-c2ccccc2C2CC2)ncc1OC` [Example 171, 2-(2-Cyclopropylphenyl)-5-methoxy-N-(2-methoxy-4-(1-methyl-4-(trifluoromethyl)-1H-imidazol-2-yl)benzyl)pyrimidin-4-amine], for which the IC50 turned out to be 2.3 nM in test [1] and 84.7 nM in test [2].

`COc1cc(CNc2nc(-c3ccccc3C3CC3)ncc2OC)ccc1-c1nc(C(F)(F)F)cn1C` [Example 172, 2-(2-Cyclopropylphenyl)-5-methoxy-N-(3-methoxy-4-(1-methyl-4-(trifluoromethyl)-1H-imidazol-2-yl)benzyl)pyrimidin-4-amine]: the IC50 worked out at 12 nM in test [1] and 954 nM in test [2].

`Cn1cc(C(F)(F)F)nc1-c1ccc(CNc2nc(-c3ccccc3C3CC3)nc3ccoc23)cc1` [Example 173, 2-(2-Cyclopropylphenyl)-N-(4-(1-methyl-4-(trifluoromethyl)-1H-imidazol-2-yl)benzyl)furo[3,2-d]pyrimidin-4-amine]: the IC50 in test [1] is 1 nM; in test [2], 23.6 nM.

`Cc1cc(C(F)(F)F)nn1-c1ccc(CNc2nc(-c3ccccc3C3CC3)nc3ccoc23)cc1` [Example 174, 2-(2-Cyclopropylphenyl)-N-(4-(5-methyl-3-(trifluoromethyl)-1H-pyrazol-1-yl)benzyl)furo[3,2-d]pyrimidin-4-amine]: the IC50 in test [1] is 5.1 nM; in test [2] it was 43.7 nM.

As to `COc1cc(-c2nc(C(F)(F)F)cn2C)ccc1CNc1nc(-c2ccccc2C2CC2)nc2ccoc12` [Example 175, 2-(2-Cyclopropylphenyl)-N-(2-methoxy-4-(1-methyl-4-(trifluoromethyl)-1H-imidazol-2-yl)benzyl)furo[3,2-d]pyrimidin-4-amine], the values for the IC50 in test [1] and in test [2] were 3.6 nM and 87.1 nM, respectively.

`COc1cc(CNc2nc(-c3ccccc3C3CC3)nc3ccoc23)ccc1-c1nc(C(F)(F)F)cn1C` [Example 176, 2-(2-Cyclopropylphenyl)-N-(3-methoxy-4-(1-methyl-4-(trifluoromethyl)-1H-imidazol-2-yl)benzyl)furo[3,2-d]pyrimidin-4-amine]: the IC50 worked out at 4 nM in test [1] and 187 nM in test [2].

On to `COc1cnc(-c2c(OC)cnn2C(C)C)nc1NCC1CCN(c2nc(C(F)(F)F)cn2C)CC1` [Example 179, 2-(1-Isopropyl-4-methoxy-1H-pyrazol-5-yl)-5-methoxy-N-((1-(1-methyl-4-(trifluoromcthyl)-1H-imidazol-2-yl)piperidin-4-yl)methyl)pyrimidin-4-amine], for which the values for the IC50 in test [1] and in test [2] were 56 nM and 197 nM, respectively.

For `COc1cnc(-c2c(OC)cnn2C(C)C)nc1NCc1ccc(-c2nc(C(F)(F)F)cn2C)cc1` [Example 180, 2-(1-Isopropyl-4-methoxy-1H-pyrazol-5-yl)-5-methoxy-N-(4-(1-methyl-4-(trifluoromethyl)-1H-imidazol-2-yl)benzyl)pyrimidin-4-amine], the IC50 in test [1] turned out to be 15 nM; in test [2] it was 123 nM.

As for `COc1cnn(C(C)C)c1-c1nc(NCc2ccc(-n3nc(C(F)(F)F)cc3C)cc2)c2occc2n1` [Example 182, 2-(1-Isopropyl-4-methoxy-1H-pyrazol-5-yl)-N-(4-(5-methyl-3-(trifluoromethyl)-1H-pyrazol-1-yl)benzyl)furo[3,2-d]pyrimidin-4-amine], the IC50 in test [1] turned out to be 7.4 nM; in test [2], 6 nM.

Turning to `COc1cnn(C2CC2)c1-c1ncc(OC(F)F)c(NCc2ccc(-c3nc(C(F)(F)F)cn3C)cc2)n1` [Example 185, 2-(1-Cyclopropyl-4-methoxy-1H-pyrazol-5-yl)-5-(difluoromethoxy)-N-(4-(1-methyl-4-(trifluoromethyl)-1H-imidazol-2-yl)benzyl)pyrimidin-4-amine], the IC50 amounted to 9.8 nM in test [1] and 120 nM in test [2].

`Cc1noc(C(C)C)c1-c1nc(NCc2ccc(-c3ccccn3)cc2)c2occc2n1` [Example 189, 2-(5-Isopropyl-3-methylisoxazol-4-yl)-N-(4-(pyridin-2-yl)benzyl)furo[3,2-d]pyrimidin-4-amine]: the IC50 was 16 nM in test [1] and 307 nM in test [2].

Regarding `Cc1noc(C(C)C)c1-c1ncc(OC(F)F)c(NCc2ccc(-c3nc(C(F)(F)F)cn3C)cc2)n1` [Example 190, 5-(Difluoromethoxy)-2-(5-isopropyl-3-methylisoxazol-4-yl)-N-(4-(1-methyl-4-(trifluoromethyl)-1H-imidazol-2-yl)benzyl)pyrimidin-4-amine], the IC50 turned out to be 33 nM in test [1] and 339 nM in test [2].

In the case of `COc1cnc(-c2c(Cl)cnn2C2CC2)nc1N(C)Cc1ccc(-c2nc(C(F)(F)F)cn2C)cc1` [Example 191, 2-(4-Chloro-1-cyclopropyl-1H-pyrazol-5-yl)-5-methoxy-N-methyl-N-(4-(1-methyl-4-(trifluoromethyl)-1H-imidazol-2-yl)benzyl)pyrimidin-4-amine], the IC50 in test [1] was found to be 4.3 nM; in test [2] it was 10.7 nM.

For `COc1cnc(-c2c(Cl)cnn2C2CC2)nc1NCc1ccc(-c2nc(C(F)(F)F)cn2C)cc1` [Example 192, 2-(4-Chloro-1-cyclopropyl-1H-pyrazol-5-yl)-5-methoxy-N-(4-(1-methyl-4-(trifluoromethyl)-1H-imidazol-2-yl)benzyl)pyrimidin-4-amine], the IC50 was found to be 3.8 nM in test [1] and 20.4 nM in test [2].

As for `COc1cnc(-c2cncnc2C2CC2)nc1NCc1ccc(-c2nc(C(F)(F)F)cn2C)cc1` [Example 194, 4'-Cyclopropyl-5-methoxy-N-(4-(1-methyl-4-(trifluoromethyl)-1H-imidazol-2-yl)benzyl)-[2,5'-bipyrimidin]-4-amine], the IC50 in test [1] stood at 51 nM; in test [2], 58.4 nM.

In the case of `Cn1cc(C(F)(F)F)nc1-c1ccc(CNc2nc(-c3cncnc3C3CC3)nc3ccoc23)cc1` [Example 196, 2-(4-Cyclopropylpyrimidin-5-yl)-N-(4-(1-methyl-4-(trifluoromethyl)-1H-imidazol-2-yl)benzyl)furo[3,2-d]pyrimidin-4-amine], the IC50 in test [1] stood at 12 nM; in test [2], 82.1 nM.

With `COc1cnc(-c2c(C)cnn2C2CC2)nc1N(C)Cc1ccc(-c2nc(C(F)(F)F)cn2C)cc1` [Example 198, 2-(1-Cyclopropyl-4-methyl-1H-pyrazol-5-yl)-5-methoxy-N-methyl-N-(4-(1-methyl-4-(trifluoromethyl)-1H-imidazol-2-yl)benzyl)pyrimidin-4-amine], the IC50 in test [1] is 3.2 nM; in test [2], 5.6 nM.

As for `COc1cnc(-c2c(C)cnn2C2CC2)nc1NCc1ccc(-c2nc(C(F)(F)F)cn2C)cc1` [Example 199, 2-(1-Cyclopropyl-4-methyl-1H-pyrazol-5-yl)-5-methoxy-N-(4-(1-methyl-4-(trifluoromethyl)-1H-imidazol-2-yl)benzyl)pyrimidin-4-amine], the IC50 came out at 5.6 nM in test [1] and 28.7 nM in test [2].
